In patent US9075071B1, “Methods for diagnosis and treatment of cancer” (University of Mississippi Medical Center, priority 2012, dated 2015):
Where a name gives a salt, the structure may show the parent alone. Peptide text beside a SMILES is read from it. * marks the point of attachment. Cbz = O=C(OCc1ccccc1)*

Columns and labels:
[1] = test system: leukemia cells; conditions: cited from earlier work
[2] = test system: induced Gem9 cells (geminin overexpressing HME cells); experiment: Cell cycle progression, PI labeling and FACS; assay type: cell-based, human; conditions: Gem9 induced 72 h; for effect on cell cycle progression: then drug 24 h, vs DMSO, ZM447439 5 μM, Nocodazole 250 ng/ml, Taxol 10 μM
Experimental: (§1) Breast cancer cell lines were maintained in RPMI medium (Invitrogen, Carlsbad, Calif.) supplemented with 10% FBS and antibiotics. Maintenance of HME cells was performed as described previously. Cells were treated with 5 μM […] (Toronto Research Chemicals Inc., North York, ON), 100 ng/ml colcemid (Sigma, St. Louis, Mo.), 250 ng/ml Nocodazole (Sigma), 10 μM Taxol (Sigma). PI or FITC-conjugated anti-BrdU FACS analysis was performed as in [20]. Annexin-V was performed according to manufacturer's instructions (BD Biosciences, 556547, San Jose, Calif.).
(§2) To evaluate that in detail, HME (or Gem9−Dox) and induced (72 h) Gem9 cells were incubated with 5 μM of ZM447439 (a specific and potent inhibitor of AurB) for an additional 24 h. To measure the effect of ZM447439 on cell cycle progression aliquots from each culture were labeled with PI and analyzed by FACS.
(§3) To evaluate whether these effects were restricted to AurB inhibitors or could be seen with drugs that alter the integrity of the microtubules apparatus as well, HME and induced Gem9 cells were treated with DMSO (control), Nocodazole (a microtubules depolymerizing agent) or Taxol (a microtubules stabilizing agent) for another 24 h. […] However, both treatments also had modest effect on geminin overexpression cells (FIGS. 9C and 9D).
(§4) Low number of dying cells was detected in parental or Gem9 cells in the absence of Dox (FIGS. 13E/1 and 13E/5, 13F/1 and 13F/5 and 13G) or in HME cells in the presence of Dox (FIGS. 13E/2 and 13E/6, 13F/2 and 13F/6 and 13G). […] It was thought that degradation of geminin following c-Abl silencing or inactivation promoted cell death in geminin overexpressing and not normal cells, at least in part, because cells became addicted to high levels of geminin.

[3] = test system: HME cells; experiment: Cell cycle progression, PI labeling and FACS; assay type: cell-based, human; conditions: for effect on cell cycle progression: normal HME cells, 24 h, vs DMSO, ZM447439 5 μM, Nocodazole 250 ng/ml, Taxol 10 μM
Experimental: as §1, §2, §3, §4

[4] = test system: induced Gem9 cells; experiment: PI / FITC-anti-BrdU FACS, tetraploid/aneuploid cells; assay type: cell-based, human; conditions: Gem9 induced 72 h (approximately 35% without treatment); imatinib 10 μM last 24 h, c-Abl silencing 72 h
Experimental: BrdU (20 μM) was added to all cultures during the last 24 h and cultures were collected, labeled with PI and FITC-anti-BrdU antibody and analyzed by FACS.

[5] = test system: geminin protein; experiment: Geminin level by western blot of sonicated extracts; assay type: cell-based, human
Experimental: To study the consequence of silencing or inactivating c-Abl on geminin overexpressing cells, experiments were first undertaken to analyze what happens to geminin protein following c-Abl silencing or inactivation. […] Another Dox treated set of cells were transfected with c-Abl dominant negative construct (i.e. K209R, see Srinivasan and Plattner, 2006) during the last 48 h. Sonicated extracts were then prepared from all cultures and geminin level was measured using western blot analysis. […] Similar effects were also observed in cells endogenously overexpressing geminin.

[6] = test system: Gem9/LT mammary tumors; experiment: Treatment of orthotopic (mammary) geminin-driven tumors in SCID mice; assay type: in vivo, mouse
Experimental: (§5) All animal experiments were approved by the University of Hawaii IACUC committee and University of Mississippi Medical Center IACUC committee. Six- to eight-week-old anaesthetized immune-compromised athymic SCID (NOD.CB17-Prkdc^scid/J, Jackson Laboratory) mice were injected with human mammary epithelial (HME) cells (5×10^6) resuspended in 200 μl of HME medium/matrigel (1:1) using a 25-gauge needle. Tumor initiation was defined as the time when tumors were 3 mm in diameter. Mice were sacrificed when the tumors grew to greater than 1.5 cm in diameter or after 12 wks of monitoring. Tumor volume was calculated with the formula 4/3πr^3 (where r is the tumor radius). At the end of the experiments tumors were dissected out, weighed and then fixed in formalin, and subsequently cut at 4 μm for histological and immunohistochemical analysis.
(§6) Tumor formation was analyzed with IVIS luciferase machine (Xenogen, Alameda, Calif.) weekly and tumor size was measured every third day by calipers. To analyze tumor formation using the in vivo system, mice were intraperitoneally injected using a 30G needle with 100 μl of D-luciferin solution (Xenogen) prepared at 15 mg/mL in PBS. […]
(§7) Geminin overexpressing cells were injected subcutaneously or orthotopically (in mammary gland) in SCID mice as described above. […] Mice were treated for 5 days and were rested for 2 days and tumor size was measured daily using calipers. […]

[7] = test system: Gem9/LT subcutaneous tumors; experiment: Treatment of subcutaneous geminin-driven tumors in SCID mice; assay type: in vivo, mouse; conditions: imatinib 50 mg/kg/day, day 12
Experimental: as §5, §6, §7

[8] = test system: induced Gem9 cells (geminin overexpressing); experiment: Metaphase chromosome spread, chromosome condensation; assay type: cell-based, human
Experimental: (§8) […] Cells were then trypsinized and washed and gently resuspended in PBS. 10 ml of 0.075M KCl was drop wise added and the cells were incubated at 37° C. (in a water bath) for 5-10 mins. Cells were then centrifuged at 900 rpm for 5 minutes and KCl was removed. 5 ml of freshly prepared fixative (3:1 Methanol/Acetic acid) was added drop wise to the cells and carefully mixed. Cells were centrifuged at 900 rpm for 5 minutes and the fixative was removed. This step was repeated 2 more times. Finally, all but 300 μl of the fixative media was removed and cells were dropped from approximately 18 inches onto an angled, humidified microscope slide. Slides were air-dry for at least 10 mins and cells were stained with propidium iodide (PI) or Giemsa.

[9] = test system: p-(S10)-H3; experiment: FITC-anti-p-H3-(S10) labeling and FACS; assay type: cell-based, human; conditions: imatinib 10 μM 24 h, c-Abl silencing 72 h
Text: Diminution of (S10)-H3 phosphorylation leads to chromosome condensation failure, lack of chromosome segregation and induction of aneuploidy (Giet et al., 2001). […] Aliquots of each culture were then fixed, labeled with FITC-anti-p-H3-(S10) specific antibody and analyzed by FACS.

[10] = test system: induced Gem9 cells; experiment: Dying cells under light microscope and TUNEL; assay type: cell-based, human; conditions: Gem9 induced 96 h; imatinib 10 μM last 48 h, c-Abl silencing 96 h
Text: (§9) The Fluorescein FragEL™ DNA Fragmentation Detection kit (Calbiochem) was used according to the supplier's protocol.
as §4

[11] = test system: parental HME cells; experiment: Dying cells under light microscope and TUNEL; assay type: cell-based, human; conditions: imatinib 10 μM last 48 h, c-Abl siRNA 96 h
Text: as §9, §4

[12] = test system: uninduced Gem9 cells; experiment: Metaphase chromosome spread, chromosome condensation; assay type: cell-based, human; conditions: 10 μM colcemid 1 h
Experimental: as §8

[13] = test system: uninduced Gem9 (Gem9-Dox, HME) cells; experiment: Cell survival, PI/annexin V labeling and FACS; assay type: cell-based, human; conditions: 24 h, ZM447439 5 μM, Nocodazole 250 ng/ml
Experimental: as §1
(§10) To measure the effect on ZM447439 on cell survival, aliquots from each culture were labeled with PI/annexin V and analyzed by FACS. […] Indeed, in ZM447439 treated cells only 40±5% of the cells were PI^−/V^−, and 41±7% were PI^+/V^− and 20±6% were PI^−/V^++PI^+/V (FIG. 9B). […] Indeed, in ZM447439 treated cells 66±4% of the cells were PI^−/V^−, 24±3% were PI^+/V^− and 10±3% were PI^−/V^++PI^+/V^+ (FIG. 9E).

[14] = test system: induced Gem9 (Gem9+Dox) cells; experiment: Cell survival, PI/annexin V labeling and FACS; assay type: cell-based, human; conditions: Gem9 induced 72 h, then drug 24 h; ZM447439 5 μM, Nocodazole 250 ng/ml
Experimental: as §1, §10

[15] = test system: SCID mice; conditions: mouse, in vivo
Experimental: Geminin overexpressing cells were injected subcutaneously or orthotopically (in mammary gland) in SCID mice as described above. When tumors reached 0.5-0.75 cm^3 in volume the treatments were initiated. […] Mice were treated for 5 days and were rested for 2 days and tumor size was measured daily using calipers. At the end of the experiments tumors were dissected out, weighed and fixed in formalin, and cut at 4 μm for histological and immunohistochemical analysis.

For `CCN(CCCOc1ccc2c(Nc3cc(CC(=O)Nc4cccc(F)c4)n[nH]3)ncnc2c1)CCOP(=O)(O)O` [AZD1152], the “effect on DNA content of cells” value [1] is given as “induce accumulation of cells with greater than 4N DNA content”.

In the case of `CC(=O)O[C@H]1C(=O)[C@@]2(C)[C@H]([C@H](OC(=O)c3ccccc3)[C@]3(O)C[C@H](OC(=O)[C@H](O)[C@@H](NC(=O)c4ccccc4)c4ccccc4)C(C)=C1C3(C)C)[C@]1(OC(C)=O)CO[C@@H]1C[C@@H]2O` [Taxol], the “effect on cell cycle progression” value [2] is reported as “modest effect” and the “effect on cell cycle progression” value [3] is reported as “triggered accumulation of normal HME cells in G2/M phase, followed by tetraploidy and then cell death”.

For `Cc1ccc(NC(=O)c2ccc(CN3CCN(C)CC3)cc2)cc1Nc1nccc(-c2cccnc2)n1` [imatinib, imatinib mesylate], the “cells with greater than 4N DNA content (tetraploid/aneuploid)” value [4] was “approximately 6%”, the “endogenous geminin protein level” value ([5]; HME cells, Dox 72 h, imatinib 10 μM last 24 h, c-Abl silencing 72 h) was “Significant reduction” and the geminin protein level ([5]; MCF7 (ER+) breast cancer cells, imatinib 10 μM or c-Abl silencing) was “significantly reduced the level of geminin protein”. The geminin protein level ([5]; MDAMB231 (ER-) breast cancer cells, imatinib 10 μM or c-Abl silencing) was “significantly reduced the level of geminin protein”, the “overexpressed geminin protein level” value ([5]; induced Gem9 cells, Dox 72 h, imatinib 10 μM last 24 h, c-Abl silencing 72 h) was “Significant reduction” and the “effect on cell cycle (PI FACS), sub-G1 and >4N cells” value ([2]; imatinib 10 μM last 24 h, c-Abl silencing 72 h) was “induced significant increase in sub-G1 and reduced the level of >4N cells”. For the same molecule, the “effect on cell cycle (PI FACS)” value ([3]; HME cells, imatinib 10 μM last 24 h, c-Abl silencing 72 h) was “induced G1-arrest”, the “mammary tumor size compared with no treatment” value ([6]; imatinib 50 mg/kg/day) was 5-10 fold and the “killing of geminin-driven tumors (tumor size)” value ([6]; start at 0.5 to 0.7 cm^3, imatinib 50 mg/kg/day, doxorubicin 5 mg/kg/day, 14 days) was “as effective in killing geminin-driven tumors as doxorubicin”. The “subcutaneous tumors after treatment” value [7] was “barely detectable”, the chromosome condensation ([8]; Gem9 with Dox 7 days plus colcemid, imatinib 10 μM last 24 h, c-Abl silencing last 72 h) was “restored chromosome condensation” and the “p-(S10)-H3-positive cells” value ([9]; induced Gem9 cells (approximately 2% without treatment)) was “approximately 13%”. The “p-(S10)-H3-positive cells” value ([9]; parental HME cells) was “reduced the percentage of p(S10)-H3-positive cells”, the “number of dying cells (light microscope, TUNEL+)” value [10] was “high number of dying cells” and the “number of dying cells (light microscope, TUNEL+)” value [11] was “Low level of dying cells”.

With `CN[C@H]1CCc2cc(OC)c(OC)c(OC)c2-c2ccc(OC)c(=O)cc21` [colcemid] the chromosome condensation [12] was “induced condensation” and the chromosome condensation ([8]; Gem9 with Dox 7 days, 10 μM colcemid 1 h) was “failed to condense the chromosomes”.

For `COc1cc2c(Nc3ccc(NC(=O)c4ccccc4)cc3)ncnc2cc1OCCCN1CCOCC1` [ZM447439], the “effect on cell cycle progression” value [2] was “little effect”, the “effect on cell cycle progression” value [3] was “triggered accumulation of normal HME cells in G2/M phase followed by tetraploidy and then cell death” and the “alive cells (PI-/V-)” value [13] was 40±5%. For the same molecule, the “apoptotic cells (PI-/V+ + PI+/V+)” value [13] was 20±6%, the “necrotic cells (PI+/V-)” value [13] was 41±7% and the “alive cells (PI-/V-)” value [14] was 66±4%. The “apoptotic cells (PI-/V+ + PI+/V+)” value [14] was 10±3% and the “necrotic cells (PI+/V-)” value [14] was 24±3%.

With `COc1cccc2c1C(=O)c1c(O)c3c(c(O)c1C2=O)C[C@@](O)(C(=O)CO)C[C@@H]3O[C@H]1C[C@H](N)[C@H](O)[C@H](C)O1` [doxorubicin] the “toxicity to the mice” value [15] was “adverse side effects including death”.

With `COC(=O)Nc1nc2ccc(C(=O)c3cccs3)cc2[nH]1` [Nocodazole] the “effect on cell cycle progression” value [2] was “modest effect”, the “effect on cell cycle progression” value [3] was “triggered accumulation of normal HME cells in G2/M phase, followed by tetraploidy and then cell death” and the “alive cells (PI-/V-)” value [13] was 75±5%. The “apoptotic cells (PI-/V+ + PI+/V+)” value [13] was 20±5%, the “necrotic cells (PI+/V-)” value [13] was 6±4% and the “alive cells (PI-/V-)” value [14] was 78±6%. The “apoptotic cells (PI-/V+ + PI+/V+)” value [14] was 10±2% and the “necrotic cells (PI+/V-)” value [14] was 12±3%.

With `CC(C)C[C@@H](C=O)NC(=O)[C@H](CC(C)C)NC(=O)[C@H](CC(C)C)NC(=O)OCc1ccccc1` [MG132] (Cbz-Leu-Leu-Leu-aldehyde) the geminin protein level ([5]; HME as well as induced Gem9 (72 h) cells, 10 μM MG132 together with 10 μM imatinib, last 24 h) was “an increase instead of a decrease”.
